The results in this text go back to patent publication US8586755B2, “Substituted nicotinamides as KCNQ2/3 modulators” (Grünenthal GmbH, priority 2009, dated 2013).

The target in this test is T1, KCNQ2/3 channels (Homo sapiens, UniProt O43525+O43526).
T1 construct: expressed in transfected cells
The experiment in a line: Fluorescence assay using a voltage sensitive dye (fluorimetry). Format: cell-based. The settings on record: CHO-K1 cells expressing KCNQ2/3 channels; for Emax / Fluorimetry % efficacy (retigabine 50 μM = 100%): retigabine 50 μM = 100%; for Emax: read-out: Fluorimetry % efficacy (retigabine 50 μM = 100%); for EC50: agonistic activity. Summed up: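 CHO-K1 cells expressing human KCNQ2/3, loaded 45 min with red membrane-potential dye in ES buffer pH 7.4 (1 mM KCl), compound 30 min at room temperature. Fluorescence (525/560 nm) read before (F1) and at peak after KCl to 92 mM final (F2); agonism from F2/F1 change, EC50 fitted.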

`O=C(NCc1cccs1)c1cccnc1SCCCc1ccncc1` [compound 101, 2-(3-Pyridin-4-yl-propylsulfanyl)-N-(thiophen-2-yl-methyl)-pyridine-3-carboxylic acid amide]: the Emax worked out at 38%.
The EC50 is the midpoint of the concentration-response curve. `O=C(NCc1cccs1)c1cccnc1SCCCc1ccc2ccccc2c1` [compound 102, 2-(3-Naphthalen-2-yl-propylsulfanyl)-N-(thiophen-2-yl-methyl)-pyridine-3-carboxylic acid amide]: the EC50 was found to be 0.456 µM and the Emax stood at 111%.
The matching figures for `Cc1cccc(CCCSc2ncccc2C(=O)NCc2cccs2)c1` [compound 103, 2-[3-(m-Tolyl)-propylsulfanyl]-N-(thiophen-2-yl-methyl)-pyridine-3-carboxylic acid amide]: 0.111 µM and 129%.
The corresponding values for `O=C(NCc1cccs1)c1cccnc1SCCCc1cccs1` [compound 104, N-(Thiophen-2-yl-methyl)-2-(3-thiophen-2-yl-propylsulfanyl)-pyridine-3-carboxylic acid amide] are 0.361 µM and 87%.
The matching figures for `CC(CCc1ccccc1)Sc1ncccc1C(=O)NCc1cccs1` (stereo not drawn) [compound 105, 2-[(1-Methyl-3-phenyl-propyl)sulfanyl]-N-(thiophen-2-yl-methyl)-pyridine-3-carboxylic acid amide]: 0.479 µM and 166%.
Regarding `O=C(NCc1cccs1)c1cccnc1SCCCc1ccsc1` [compound 106, N-(Thiophen-2-yl-methyl)-2-(3-thiophen-3-yl-propylsulfanyl)-pyridine-3-carboxylic acid amide], the EC50 came to 0.191 µM and the Emax amounted to 95%.
For the compound `O=C(NCc1cccs1)c1cccnc1SC1CCCCC1Cc1ccccc1` (stereo not drawn) [compound 108, 2-[(2-Benzyl-cyclohexyl)sulfanyl]-N-(thiophen-2-yl-methyl)-pyridine-3-carboxylic acid amide], the EC50 was found to be 0.165 µM and the Emax was determined as 143%.
In the case of `Cc1cc(CCCSc2ncccc2C(=O)NCc2cccs2)cc(C(F)(F)F)c1` [compound 109, 2-[3-[3-Methyl-5-(trifluoromethyl)-phenyl]-propylsulfanyl]-N-(thiophen-2-yl-methyl)-pyridine-3-carboxylic acid amide], the midpoint of the response, the EC50, lay at 0.18 µM and the Emax is 129%.
The matching figures for `O=C(NCc1cccs1)c1cccnc1SCCCCc1ccc(F)c(F)c1` [compound 110, 2-[4-(3,4-Difluoro-phenyl)-butylsulfanyl]-N-(thiophen-2-yl-methyl)-pyridine-3-carboxylic acid amide]: 0.462 µM and 110%.
Regarding `O=C(NCc1cccs1)c1cccnc1SCCCc1ccccn1` [compound 111, 2-(3-Pyridin-2-yl-propylsulfanyl)-N-(thiophen-2-yl-methyl)-pyridine-3-carboxylic acid amide], a half-maximal response (EC50) required 11.1 µM and the Emax came to 61%.
As for `O=C(NCc1cccs1)c1ccc(N2CCCC2)nc1SCCCc1ccccc1` [compound 112], the EC50 was 0.494 µM and the “Fluorimetry % efficacy (retigabine 50 μM = 100%)” value (from here on “Fluorimetry % efficacy”) was determined as 104%.
On to `Cc1ccc(CCCSc2ncccc2C(=O)NCc2cccs2)cc1C(F)(F)F` [compound 113, 2-[3-[4-Methyl-3-(trifluoromethyl)-phenyl]-propylsulfanyl]-N-(thiophen-2-yl-methyl)-pyridine-3-carboxylic acid amide], for which the EC50 came to 5.2 µM and the Emax amounted to 90%.
`O=C(NCc1cccs1)c1cccnc1SC1CCCC(c2ccccc2)C1` (stereo not drawn) [compound 114, 2-[(3-Phenyl-cyclohexyl)sulfanyl]-N-(thiophen-2-yl-methyl)-pyridine-3-carboxylic acid amide]: the half-maximal effective concentration (EC50) stood at 0.553 µM and the Emax is 128%.
For the compound `O=C(NCC1CC2CCC1C2)c1cccnc1SCCC(F)(F)c1ccc(F)cc1` (stereo not drawn) [compound 115], the 50% effective concentration (EC50) is 0.042 µM and the “Fluorimetry % efficacy” value stood at 213%.
As for `O=C(NCC1CCCCCC1)c1cccnc1SCCC(F)(F)c1ccc(F)cc1` [compound 117, N-(Cycloheptyl-methyl)-2-[[3,3-difluoro-3-(4-fluorophenyl)-propyl]sulfanyl]-pyridine-3-carboxylic acid amide], the EC50 amounted to 0.035 µM and the Emax worked out at 160%.
Consider `O=C(NCc1cccs1)c1cccnc1SCCC(F)(F)c1ccc(F)cc1` [compound 118, 2-[[3,3-Difluoro-3-(4-fluorophenyl)-propyl]sulfanyl]-N-(thiophen-2-yl-methyl)-pyridine-3-carboxylic acid amide], for which the EC50 came out at 0.037 µM and the Emax was found to be 159%.
Consider `O=C(NCC1CCc2ccccc2C1)c1cccnc1SCCCc1ccc(F)cc1` (stereo not drawn) [compound 119, 2-[3-(4-Fluorophenyl)-propylsulfanyl]-N-(1,2,3,4-tetrahydro-naphthalen-2-yl-methyl)-pyridine-3-carboxylic acid amide], for which the Emax is 30%.
For `O=C(NCC1Cc2ccccc2C1)c1cccnc1SCCCc1ccc(F)cc1` [compound 120, N-(2,3-Dihydro-1H-inden-2-yl-methyl)-2-[3-(4-fluorophenyl)-propylsulfanyl]-pyridine-3-carboxylic acid amide], the EC50 is 0.307 µM and the Emax stood at 61%.
The matching figures for `O=C(NCc1ccc2c(c1)OCO2)c1cccnc1SCCCc1ccc(F)cc1` [compound 121, N-(1,3-Benzodioxol-5-yl-methyl)-2-[3-(4-fluorophenyl)-propylsulfanyl]-pyridine-3-carboxylic acid amide]: 0.256 µM and 99%.
The corresponding values for `O=C(NCc1cccc(-c2ccccc2)c1)c1cccnc1SCCCc1ccc(F)cc1` [compound 122, 2-[3-(4-Fluorophenyl)-propylsulfanyl]-N-[(3-phenyl-phenyl)-methyl]-pyridine-3-carboxylic acid amide] are 0.153 µM and 94%.
The matching figures for `CC1CCCC(CNC(=O)c2cccnc2SCCCc2ccc(F)cc2)C1` (stereo not drawn) [compound 123, 2-[3-(4-Fluorophenyl)-propylsulfanyl]-N-[(3-methyl-cyclohexyl)-methyl]-pyridine-3-carboxylic acid amide]: 0.155 µM and 168%.
Take `CC(C)(C)C(=O)CNC(=O)c1cccnc1SCCCc1ccc(F)cc1` [compound 125, N-(3,3-Dimethyl-2-oxo-butyl)-2-[3-(4-fluorophenyl)-propylsulfanyl]-pyridine-3-carboxylic acid amide]: the response was half-maximal at 1.4 µM (EC50) and the Emax stood at 99%.
As to `CC(C)(C)C(O)CNC(=O)c1cccnc1SCCCc1ccc(F)cc1` (stereo not drawn) [compound 126], the concentration giving a half-maximal response (EC50) was 0.627 µM and the “Fluorimetry % efficacy” value came out at 177%.
With `O=C(NCc1cccnc1)c1cccnc1SCCCc1ccc(F)cc1` [compound 127, 2-[3-(4-Fluorophenyl)-propylsulfanyl]-N-(pyridin-3-yl-methyl)-pyridine-3-carboxylic acid amide], the half-maximal effective concentration (EC50) worked out at 1.86 µM and the Emax came to 147%.
Turning to `O=C(NCc1ccncc1)c1cccnc1SCCCc1ccc(F)cc1` [compound 128, 2-[3-(4-Fluorophenyl)-propylsulfanyl]-N-(pyridin-4-yl-methyl)-pyridine-3-carboxylic acid amide], it took 1.85 µM to reach a half-maximal effect (EC50) and the Emax is 122%.
